# Test results as given in ChEMBL document CHEMBL5321222, “N(14)-substituted evodiamine derivatives as dual topoisomerase 1/tubulin-Inhibiting anti-gastrointestinal tumor agents” (Eur J Med Chem, 2023).
# pIC50: −log10 of the molar value. Activity calls are given as the source filed them. No cut-off for these calls is given here.
# How the values were obtained:
# RKO [1] = experiment: Antiproliferative activity against human RKO cells assessed as reduction in cell viability incubated for 24 hrs by BrdU staining based fluorescence microscopic analysis; format: functional; conditions: dose 10-90 nM
# MGC-803 [2] = experiment: Induction of apoptosis in human MGC-803 cells assessed as late apoptotic cells at 0.05 uM incubated for 24 hrs by propidium iodide and Annexin V/FITC staining based flow cytometry assay (reference value: 4.10%); format: functional
# LoVo = experiment: Antiproliferative activity against human LoVo cells assessed as reduction in cell viability incubated for 72 hrs by MTT assay; format: functional, cell-based
# MGC-803 [3] = experiment: Induction of morphological changes in human MGC-803 cells assessed as cell deformation at 0.05 to 0.2 uM incubated for 24 hrs by Giemsa staining based micrscopic analysis; format: functional; conditions: dose 0.05-0.2 µM
# MGC-803 [4] = experiment: Inhibition of colony formation in human MGC-803 cells at 90 nM incubated for 7 days by crystal violet staining based assay; format: functional, cell-based; conditions: time 7.0 day
# RKO [5] = experiment: Induction of apoptosis in human RKO cells assessed as early apoptotic cells at 0.05 uM incubated for 24 hrs by propidium iodide and Annexin V/FITC staining based flow cytometry assay (reference value: 0.16%); format: functional
# MGC-803 [6] = experiment: Induction of cell cycle arrest in human MGC-803 cells assessed as accumulation of cells at G2/M phase at 0.05 uM incubated for 24 hrs by propidium iodide staining based flow cytometry analysis; format: functional
# RKO [7] = experiment: Induction of morphological changes in human RKO cells assessed as formation of apoptotic bodies at 0.05 to 0.2 uM incubated for 24 hrs by Giemsa staining based micrscopic analysis; format: functional, cell-based; conditions: dose 0.05-0.2 µM
# RKO [8] = experiment: Induction of apoptosis in human RKO cells assessed as late apoptotic cells at 0.05 uM incubated for 24 hrs by propidium iodide and Annexin V/FITC staining based flow cytometry assay (reference value: 0.50%); format: functional
# MGC-803 [9] = experiment: Inhibition of cell […] in human MGC-803 cells at 5 nM incubated for 24 hrs by scratch wound healing assay; format: functional, cell-based
# MGC-803 [10] = experiment: Inhibition of colony formation in human MGC-803 cells incubated for 7 days by crystal violet staining based assay; format: functional, cell-based; conditions: dose 10-90 nM, time 7.0 day
# RKO [11] = experiment: Inhibition of colony formation in human RKO cells incubated for 7 days by crystal violet staining based assay; format: functional, cell-based; conditions: dose 10-90 nM, time 7.0 day
# MGC-803 [12] = experiment: Induction of apoptosis in human MGC-803 cells assessed as late apoptotic cells at 0.1 uM incubated for 24 hrs by propidium iodide and Annexin V/FITC staining based flow cytometry assay (reference value: 4.10%); format: functional
# MGC-803 [13] = experiment: Induction of apoptosis in human MGC-803 cells assessed as early apoptotic cells at 0.1 uM incubated for 24 hrs by propidium iodide and Annexin V/FITC staining based flow cytometry assay (reference value: 1.85%); format: functional
# MGC-803 [14] = experiment: Inhibition of cell migration in human MGC-803 cells assessed as reduction in tumor wound healing incubated for 24 hrs by microscopic analysis; format: functional, cell-based; conditions: dose 10-90 nM
# [15] = target: T1, DNA topoisomerase 1 (Homo sapiens) (UniProt P11387); experiment: Inhibition of topoisomerase 1 (unknown origin) at 200 uM using PBR322 DNA as substrate incubated for 30 mins by agarose gel electrophoresis
# T1 sequence (whole entry): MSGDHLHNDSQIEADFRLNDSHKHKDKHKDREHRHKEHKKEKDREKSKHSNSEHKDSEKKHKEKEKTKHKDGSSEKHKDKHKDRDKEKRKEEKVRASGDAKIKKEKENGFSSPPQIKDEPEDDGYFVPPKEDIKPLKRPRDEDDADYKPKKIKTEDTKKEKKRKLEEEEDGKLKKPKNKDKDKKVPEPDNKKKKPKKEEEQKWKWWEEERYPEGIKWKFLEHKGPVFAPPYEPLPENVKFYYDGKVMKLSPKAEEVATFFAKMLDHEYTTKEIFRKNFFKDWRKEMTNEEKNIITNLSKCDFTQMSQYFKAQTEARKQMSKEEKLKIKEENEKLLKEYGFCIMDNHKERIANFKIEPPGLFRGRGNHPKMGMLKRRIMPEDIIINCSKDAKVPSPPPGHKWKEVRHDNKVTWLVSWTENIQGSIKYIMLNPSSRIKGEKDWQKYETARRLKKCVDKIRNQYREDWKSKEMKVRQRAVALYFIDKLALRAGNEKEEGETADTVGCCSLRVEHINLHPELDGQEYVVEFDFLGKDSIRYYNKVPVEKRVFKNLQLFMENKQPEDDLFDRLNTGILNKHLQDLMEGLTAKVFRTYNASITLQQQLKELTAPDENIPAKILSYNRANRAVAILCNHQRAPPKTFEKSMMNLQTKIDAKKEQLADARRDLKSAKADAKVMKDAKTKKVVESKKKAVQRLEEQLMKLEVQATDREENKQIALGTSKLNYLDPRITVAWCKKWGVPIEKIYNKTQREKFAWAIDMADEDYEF
# SGC-7901 = experiment: Antiproliferative activity against human SGC-7901 cells assessed as reduction in cell viability incubated for 72 hrs by MTT assay; format: functional, cell-based; conditions: SGC-7901, 72 h
# Tubulin (Homo sapiens) [16] = target: T2, Tubulin (Homo sapiens) (UniProt P68371+Q9H4B7+P0DPH7+P68366+Q13509+Q71U36+P04350+Q3ZCM7+P07437+P68363+Q9BQE3+Q6PEY2+Q13885+Q9BVA1+Q9BUF5); experiment: Induction of microtubule disruption in human MGC-803 cells assessed as atrophied nucleus at 50 to 200 nM incubated for 24 hrs by laser confocal microscopic analysis; format: cell-based; conditions: dose 50-200 nM
# RKO [17] = experiment: Induction of apoptosis in human RKO cells assessed as early apoptotic cells at 0.2 uM incubated for 24 hrs by propidium iodide and Annexin V/FITC staining based flow cytometry assay (reference value: 0.16%); format: functional
# Tubulin (Homo sapiens) [18] = target: T2, Tubulin (Homo sapiens); experiment: (§1) Inhibition of tubulin polymerization (unknown origin) measured every minute; format: protein-complex assay
# Tubulin = experiment: as §1; format: protein-complex assay, Homo sapiens
# SW480 = experiment: Antiproliferative activity against human SW480 cells assessed as reduction in cell viability incubated for 72 hrs by MTT assay; format: functional, cell-based; conditions: SW480, 72 h
# MGC-803 [19] = experiment: Induction of apoptosis in human MGC-803 cells assessed as early apoptotic cells at 0.05 uM incubated for 24 hrs by propidium iodide and Annexin V/FITC staining based flow cytometry assay (reference value: 1.85%); format: functional
# MGC-803 [20] = experiment: Antiproliferative activity against human MGC-803 cells assessed as reduction in cell viability incubated for 24 hrs by BrdU staining based fluorescence microscopic analysis; format: functional; conditions: dose 10-90 nM
# MGC-803 [21] = experiment: Induction of apoptosis in human MGC-803 cells assessed as late apoptotic cells at 0.2 uM incubated for 24 hrs by propidium iodide and Annexin V/FITC staining based flow cytometry assay (reference value: 4.10%); format: functional
# MGC-803 [22] = experiment: Induction of cell cycle arrest in human MGC-803 cells assessed as accumulation of cells at G2/M phase at 0.05 to 0.2 uM incubated for 24 hrs by propidium iodide staining based flow cytometry analysis; format: functional; conditions: dose 0.05-0.2 µM
# RKO [23] = experiment: Induction of apoptosis in human RKO cells assessed as late apoptotic cells at 0.2 uM incubated for 24 hrs by propidium iodide and Annexin V/FITC staining based flow cytometry assay (reference value: 0.50%); format: functional
# MGC-803 [24] = experiment: Induction of morphological changes in human MGC-803 cells assessed as cell shrinkage at 0.05 to 0.2 uM incubated for 24 hrs by Giemsa staining based micrscopic analysis; format: functional; conditions: dose 0.05-0.2 µM
structure (smiles),measurement,setting,value
CCCN1c2ccccc2C(=O)N2CCc3c([nH]c4ccccc34)C21 (stereo not drawn),Activity,RKO [1],Dose-Dependent Effect
same,Activity,MGC-803 [2],6.84%
same,pIC50,LoVo,6.64
same,Activity,MGC-803 [3],Active
same,inhibition,MGC-803 [4],Active
same,Activity,RKO [5],9.67%
same,Activity,MGC-803 [6],40.55%
same,Activity,RKO [7],Active
same,Activity,RKO [8],21.45%
same,inhibition,MGC-803 [9],Active
same,inhibition,MGC-803 [10],Dose-Dependent Effect
same,inhibition,RKO [11],Dose-Dependent Effect
same,Activity,MGC-803 [12],24.63%
same,Activity,MGC-803 [13],6.76%
same,inhibition,MGC-803 [14],Dose-Dependent Effect
same,inhibition,[15],Active
same,pIC50,SGC-7901,7.05
same,Activity,Tubulin (Homo sapiens) [16],Active
same,Activity,RKO [17],14.35%
same,inhibition,Tubulin (Homo sapiens) [18],Dose-Dependent Effect
same,pIC50,Tubulin,5.24
same,pIC50,SW480,6.15
same,Activity,MGC-803 [19],3.03%
same,Activity,MGC-803 [20],Dose-Dependent Effect
same,Activity,MGC-803 [21],25.1%
same,Activity,MGC-803 [22],Active
same,Activity,RKO [23],37.67%
same,Activity,MGC-803 [24],Active
